The text below walks through data of PubChem BioAssay AID720513 (Broad Institute, 2013).

Results filed as inconclusive are left out. Where only a bound is given, the exact number is not on record here.

The assay deals with U2OS PGC1a acetylation AlphaLISA, overnight. Put plainly: PGC1a acetylation increase, cellular AlphaLISA – cell-based, cherry-picked samples, set 6, dose response (AID 720513).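 Further: cells made to overexpress flag tagged PGC1a plus GCN5 acetyltransferase by viral infection.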 A general note: Alpha assays give light when donor and acceptor beads are brought close together.
As to `COc1cccc(CN2C[C@@H]3N[C@H](C2)C3c2ccc(-c3cccc(C#N)c3)cc2)c1` (stereo partly drawn), the AC40 is 10 µM. In the case of `NC(=O)Cc1ccc2c(c1)[nH]c1ccccc12`, the AC40 was 1.33 µM. Consider `COc1cc2cc(-c3ccc(O)cc3O)nc(C)c2cc1OC`, for which the AC40 is 19.3 µM.

Consider `COc1ccc(C2N(S(=O)(=O)c3ccccc3)CCN2S(=O)(=O)c2ccc(C)cc2)cc1` (stereo not drawn), for which the AC40 is 6.61 µM. With `CC(Oc1ccc(Cl)cc1Cl)c1nc(-c2ccc(NC(=O)c3cccnc3)cc2)no1` (stereo not drawn) the figure was 0.581 µM; with `Oc1ccc(Nc2nnc(-c3ccc(O)cc3)c3ccccc23)cc1`, 1.57 µM; with `Cc1cc(S(=O)(=O)c2ccc([N+](=O)[O-])cn2)ccc1Br`, 0.421 µM. With `CC(=O)c1ccc(N2CCN(c3ccc(S(=O)(=O)NCCCN(C)C)cc3[N+](=O)[O-])CC2)cc1` the figure was 1.22 µM. In the case of `OC[C@H]1O[C@@H](n2cnc3c(NCc4ccco4)ncnc32)[C@H](O)[C@@H]1O`, the AC40 is 7.4 µM. The same measure for `O=c1[nH]nc(SCCS(=O)(=O)c2ccc(F)cc2)n1-c1ccccc1`: 15.2 µM. The same measure for `C[C@@H]1CN([C@@H](C)CO)C(=O)c2c(c3ccccc3n2C)-c2ccccc2CO[C@@H]1CN(C)C(=O)c1ccc(F)cc1`: 4.7 µM; for `CC(=O)Nc1sc2c(c1-c1nc3ccccc3s1)CN(C(C)C)CC2`: 1.45 µM. Take `COc1ccc(CN(CCC(C)C)S(=O)(=O)c2ccccc2Br)cc1`: the AC40 is 2.04 µM. The same measure for `C[C@@H]1CN([C@H](C)CO)C(=O)c2c(c3ccccc3n2C)-c2ccccc2CO[C@@H]1CN(C)C(=O)Nc1ccc2c(c1)OCO2`: 10.7 µM; for `CC/C(=C(\c1ccc(O)cc1)c1ccc(OCCN(C)C)cc1)c1ccccc1`: 2.41 µM; for `O=C(Cc1ccc(Cl)cc1)c1c[nH]c(C(=O)NCc2cccnc2)c1`: 3.56 µM.

With `COc1ccc(C2CC(=O)N(C)c3ccccc3S2)cc1` (stereo not drawn), the AC40 was 6.61 µM. With `O=C1NCN(c2ccccc2)C12CCN(C(c1cccc3ccccc13)c1nnnn1C1CCCCC1)CC2` (stereo not drawn) the figure was 5.43 µM; with `CCCCN(CC)CCCNC(=O)c1cc2c(=O)n(CC)c3ccccc3c2s1`, 1.26 µM. In the case of `Cc1csc(NC(=O)NC2(C(F)(F)F)Oc3ccccc3O2)n1`, the AC40 was 6.24 µM. With `Cc1ccc(/C(N)=N/OC(=O)c2ccco2)cc1` the figure was 8.81 µM; with `COc1cc(NC(=O)c2cccs2)c(OC)cc1NC(=O)CCC(=O)Nc1ccc2ncccc2c1`, 0.785 µM.

`Cc1ccc(Nc2nnc(C)c3ccccc23)c(C)c1`: the AC40 was 2.09 µM. With `CCOc1ccc(S(=O)(=O)N2c3ccccc3CC2C)cc1` (stereo not drawn) the figure was 11.5 µM. Turning to `C[C@@H](c1ccccc1)N1Cc2ccccc2Oc2cc(Br)ccc2S1(=O)=O`, the AC40 was 14.3 µM.

As for `CN1/C(=C\C(=O)c2cccc(S(=O)(=O)N3CCCCC3)c2)C(C)(C)c2ccccc21`, the AC40 was 10.9 µM. With `CCOC(=O)N1CCN(C(=O)C(NS(=O)(=O)c2cccc3nsnc23)c2ccccc2)CC1` (stereo not drawn) the figure was 17.9 µM.

As to `COc1ccc2nc3c(cc2c1)c(NC(=O)c1cccs1)nn3CC(C)C`, the AC40 is 5.35 µM. In the case of `O=C(NC(Nc1cc(C(F)(F)F)ccc1Cl)C(=O)c1ccccc1)c1ccccc1` (stereo not drawn), the AC40 is 13.6 µM. Regarding `CCN1CCN(c2ncc(C(=O)Nc3cc(Cl)ccc3OC)c3ccccc23)CC1`, the AC40 is 5.32 µM. The same measure for `COc1ccc(S(=O)(=O)N(C)C[C@@H]2Oc3cc(C#CC4CC4)ccc3S(=O)(=O)N([C@H](C)CO)C[C@@H]2C)cc1`: 18 µM; for `COc1ccc(C(C)(O)c2nc(-c3ccc(S(C)(=O)=O)cc3)cs2)cc1` (stereo not drawn): 7.7 µM; for `COC(=O)c1ccc(NC(=O)C23CC4CC(C2)CC(n2cnc(Cl)n2)(C4)C3)cc1`: 1.82 µM. The same measure for `Nc1c(C(=O)c2ccccc2)sc2nsc(SCCN3CCCC3)c12`: 9.72 µM. With `O=C(CN1CCC(n2nnc3ccccc32)CC1)NCc1cccs1` the figure was 1.67 µM; with `Cc1cc(C)c2c(-n3cccc3)c(C(=O)NNS(=O)(=O)c3ccc(F)cc3)sc2n1`, 5.62 µM. On to `Cc1cc(C)c2c(-n3cccc3)c(C(=O)NNS(=O)(=O)c3ccccc3)sc2n1`, for which the AC40 was 4.82 µM. The same measure for `COc1ccccc1OCC(=O)Nc1ccc(Cl)cc1C(=O)c1ccccc1`: 7.29 µM. For the molecule `CCc1nnc(NC(=O)Cc2ccc(S(=O)(=O)N3CCCCC3)cc2)s1`, the AC40 was 16.6 µM.

For the molecule `COc1ccc(NC(=O)C2(C)Cc3c(-c4cccc(NC(C)=O)c4)ccnc3O2)cc1` (stereo not drawn), the AC40 is 17.1 µM.

Consider `CCn1c(=S)[nH]c2cc(S(=O)(=O)N3CCCCC3)ccc21`, for which the AC40 was 1.62 µM.

On to `OC(c1ccccc1)(C1CCCCC1)C(CN1CCOCC1)c1ccccc1` (stereo not drawn), for which the AC40 was 0.634 µM. The same measure for `N#Cc1ccccc1S(=O)(=O)N1CCN(Cc2cc3c(cc2Br)OCCO3)CC1`: 0.934 µM; for `COc1ccc(C(=O)NN(C)c2nc(-c3ccccc3)cc(C)c2S(C)(=O)=O)cc1`: 19 µM.

With `O=C(CN1CCC(n2nnc3cc(F)ccc32)CC1)Nc1ccc2c(c1)CCC2`, the AC40 was 2.71 µM. With `N#Cc1ccc(Oc2cccnc2)cc1C#N` the figure was 6.09 µM; with `Cc1cccc(C)c1OC1(c2ccccc2)OC(=O)c2ccccc21` (stereo not drawn), 1.1 µM. `CCN(CC)c1ccc(N)cc1S(=O)(=O)Nc1ccccc1OC`: the AC40 was 3 µM. The same measure for `COc1ccc(N(C(=O)c2snc(C(N)=O)c2N)C(C(=O)NC2CCCCC2)c2ccc(C)o2)cc1` (stereo not drawn): 5.68 µM.

For `O=C(/C=C/Sc1ncn[nH]1)c1ccc(Cl)cc1`, the AC40 was 0.395 µM. The same measure for `COc1ccc(Cc2nc(-c3ccc(NC(=O)c4cccnc4)cc3)no2)cc1`: 0.991 µM; for `O=C(Cn1c(CN2CCCCC2)nc2ccccc2c1=O)Nc1ccccc1`: 5.19 µM; for `Cc1ccccc1-c1ccc(C2[C@@H]3CN(S(=O)(=O)c4ccccc4C)C[C@H]2N3)cc1` (stereo partly drawn): 12.9 µM. The same measure for `CC(C)(C)c1ccc(C(=O)c2c[nH]c(C(=O)NCc3cccnc3)c2)cc1`: 1.23 µM; for `Cc1cccc(-c2ccc(C3[C@@H]4CN(C(=O)C5CCCCC5)C[C@H]3N4)cc2)c1` (stereo partly drawn): 6.09 µM; for `O=C(c1ccc(NC(=O)C2(c3ccccc3)CCOCC2)cc1)N1CCOCC1`: 16.6 µM. The same measure for `O=C(Nc1ccccc1-c1ccccc1)NC1CC2CCCC(C1)N2Cc1ccc(F)cc1` (stereo not drawn): 10.5 µM; for `COc1ccc(C(c2ccc(OC)cc2)C(Cl)(Cl)Cl)cc1`: 0.729 µM; for `O=C(NCc1cccnc1)c1ccc(NC(=O)c2cccc([N+](=O)[O-])c2)cc1`: less than 0.16 µM. For `COc1ccc(C)cc1NS(=O)(=O)c1ccc(NC(=O)CN(c2cc([N+](=O)[O-])ccc2C)S(C)(=O)=O)cc1`, the AC40 was 0.426 µM. The same measure for `Cc1cc2cc3c(cc2nc1SCC(=O)OC(C)C)OCCO3`: 11.5 µM. Turning to `O=S(=O)(c1cccc(F)c1)N1CCN(Cc2cc3c(cc2Br)OCCO3)CC1`, the AC40 was 0.411 µM. The same measure for `Cc1ccc(S(=O)(=O)N2C[C@@H]3N[C@H](C2)[C@@H]3c2ccc(-c3cccc(C)c3)cc2)cc1`: 5.18 µM; for `Nc1c(C(=O)Nc2ccccc2)c2nc3ccccc3nc2n1CCCN1CCOCC1`: 4.85 µM.

As to `c1ccc(N2CCN(c3ccccc3)C2c2ccncc2)cc1`, the AC40 was 0.244 µM. As for `COC(=O)[C@@]1(C)[C@H]2C(=O)N(Cc3ccccc3)C(=O)[C@H]2[C@H]2CN=C(SCC3CC3)N21`, the AC40 is 16.8 µM.

In the case of `CCOC(=O)c1sc2nc(C)nc(NCc3ccccc3OC)c2c1C`, the AC40 is 3.12 µM. With `CCOc1ccc(Nc2oc(-c3ccc(Cl)cc3)nc2C#N)cc1` the figure was 3.09 µM. Turning to `COc1ccccc1-c1ccc2c(c1)C(C)(Cc1ccc(OC(F)(F)F)cc1)C(=O)N2` (stereo not drawn), the AC40 was 2.47 µM.

As to `COC(=O)CSc1nc(-c2ccccc2)cc(-c2ccco2)c1C#N`, the AC40 is 6.11 µM. The same measure for `CCOc1ccc(NC2c3ccccc3C(=O)N2Cc2ccc3c(c2)OCO3)cc1` (stereo not drawn): 16.3 µM; for `CN(C)CC(O)c1ccc(C=Cc2ccc(Cl)cc2)cc1` (stereo not drawn): 3.19 µM; for `O=C1OC(Oc2ccc(Br)cc2)(c2ccccc2)c2ccccc21` (stereo not drawn): 1.46 µM.

Turning to `CC1CCCCN1C(=O)/C(=C\c1ccccc1)c1ccccc1` (stereo not drawn), the AC40 was 8.57 µM. `O=S(=O)(c1ccc(Cl)cc1)N1[C@@H]2CNC[C@H]1C2c1ccc(-c2cccc(F)c2)cc1` (stereo partly drawn): the AC40 is less than 2.6 µM. With `CCN1CCN(C(=O)c2ccc3c(=O)n(CCC4=CCCCC4)c(=O)[nH]c3c2)CC1` the figure was 1.94 µM; with `O=C(CC1SC(=NCc2ccccc2)NC1=O)Nc1ccccc1` (stereo not drawn), 0.632 µM. The same measure for `Cc1ccc(-c2nnc(N3CCN(C(=O)COc4ccccc4)CC3)c3ccccc23)cc1`: 0.734 µM; for `COc1cccc(-c2ccc(C3[C@@H]4CN(S(=O)(=O)c5cccc(OC)c5)C[C@H]3N4)cc2)c1` (stereo partly drawn): 10.5 µM.

Turning to `COc1ccc(N(C(=O)c2snc(C(N)=O)c2N)C(C(=O)NC2CCCCC2)c2ccc(F)cc2)c(OC)c1` (stereo not drawn), the AC40 is 3.26 µM.

Turning to `COc1cccc(N(CC(=O)NCc2cccnc2)S(C)(=O)=O)c1`, the AC40 was 14.2 µM. The same measure for `CCOc1ccc(NC(=O)CN2CCC(n3cnc4cc(F)ccc43)CC2)cc1`: 2.84 µM. The same measure for `CN1CCN(c2ccc(CNC(=O)c3ccc(-c4ccnn4C)c4ccoc34)cc2)CC1`: 9.27 µM; for `O=[N+]([O-])c1ccc(S(=O)(=O)c2cccc(C(F)(F)F)c2)nc1`: 0.581 µM. `Cc1nc(N2CCN(S(=O)(=O)c3ccc(F)cc3)CC2)c2c(-c3cccs3)csc2n1`: the AC40 was 3.27 µM. With `O=C(NCc1cccs1)c1ccc(Cl)c(S(=O)(=O)N2CCCC2)c1` the figure was 3.54 µM; with `CCCCSc1ccc(NC(=O)c2cccnc2)cc1`, 1.78 µM. On to `O=C(Cc1ccccc1)Nc1ccc(NC(=O)c2ccco2)nc1`, for which the AC40 is 1.44 µM.

With `O=C(Nc1c(F)cccc1F)c1ccc(-n2cncn2)nc1`, the AC40 is 9.12 µM. As to `CCOC(=O)C1(Cc2ccccc2)CCN(Cc2cccc(OC)c2O)CC1`, the AC40 is 6.65 µM. For the molecule `CCOC(=O)c1[nH]c(C)c(C(=O)Nc2cc(OC)ccc2OC)c1C`, the AC40 was 13 µM. For `CC(C)(C)c1ccc(NC(=O)N2CCN(c3ccc([N+](=O)[O-])cn3)CC2)cc1`, the AC40 was less than 0.16 µM.

For `CCOC(=O)CC(S(=O)(=O)c1ccccc1)S(=O)(=O)c1ccccc1`, the AC40 was 4.09 µM.
